Laboratory results from patent US20110077215A1, “DNA Methylation As A Target For Diagnosis And Treatment Of Chronic Lymphocytic Leukema (CLL)” (THE UNIVERSITY OF UTAH RESEARCH FOUNDATION, priority 2005, published 2011).
“Also recorded” adds a separate entry of the source. Marks after values point to notes of the source that are not given here.

Legend:
global DNA methylation [1] = assay: Global methylation analysis after continuous infusion Decitabine; type: in vivo, human; details: patients treated with Decitabine
Experimental: All patients were treated with continuous infusion Decitabine given intravenously in an inpatient setting. […] The method for assessing DNA methylation was consistent and reproducible (Samlowski et al. Manuscript submitted to JCO).

[2] = tested on: patients with chronic lymphocytic leukemia; assay: Phase I dose-escalation of low-dose subcutaneous cladribine: clinical response and toxicity; type: in vivo, human
Experimental: Additional inclusion criteria included: KPS>70%, absolute neutrophil count >1500/μl, platelet count >100,000/μl, creatinine <2.0 mg/dl, normal liver function tests, no evidence of active infections on chest x-ray or urinalysis, and no concurrent chemotherapy or radiation therapy within 4 weeks of registration. Each patient signed an informed consent form approved by the University of Utah institutional review board, Clinical Cancer Investigation Committee, and Salt Lake City Veterans Administration Medical Center (SLC VAMC) Research and Development office.
The study accrued three patients from the VAMC and two patients from the Huntsman Cancer Institute at the University of Utah from January to May 2005. The patients were given three consecutive subcutaneous injections of cladribine (Leustatin) once every 28-32 days, starting at a dose of 0.05 mg per kg per day. The primary endpoint of the study was to find the dose of cladribine which caused a 20% decrease in global DNA methylation. Each patient served as their own control, and was dose-escalated every 28-32 days by 0.01 mg per kg per day if the primary endpoint was not met. Patients were given prophylactic doses of trimethoprim/sulfamethoxazole for the prevention of pneumocystis carinii. Patients allergic to trimethoprim/sulfamethoxazole were prescribed prophylactic doses of dapsone. No clinical endpoints were written into the study initially. […] A clinical response was defined by the NCI-sponsored working group for CLL. (See Cheson et al., BLOOD (1996) 87:4990-97). A patient was considered to have completed the study when the total white blood count was less than 10,000 cells/μl after two consecutive weekly blood counts. The entire study was conducted at the University of Utah General Clinical Research Center (GCRC). Leustatin was provided to the patients by Tibotec Therapeutics, a division of Johnson and Johnson.
Five patients with CLL were given subcutaneous injections of cladribine (Leustatin, provided by Tibotec Therapeutics) on three consecutive days at 28-32 day intervals, starting at a dose of 0.05 mg/kg/day, approximately ⅓ of the recommended therapeutic dose. {Juliusson, 1993 #10; Juliusson, 1996 #11} Five patients with a confirmed diagnosis of CLL (Table 3) participated in an Institutional Review Board-approved protocol between January and May 2005 after informed consent was obtained. […] Inclusion criteria included: KPS>70%, absolute neutrophil count >1500/μL, platelet count >100,000/μL, creatinine <2.0 mg/dL, normal liver function tests, no evidence of active infections, and no concurrent chemotherapy or radiation therapy within 4 weeks of registration.

global DNA methylation [3] = assay: Global DNA methylation (HPLC of digested genomic DNA) before and after low-dose cladribine; type: in vivo, human
[4] = tested on: histone 3 (H3) methylation in CLL cells; assay: Histone methylation immunofluorescence of CLL cells after low-dose cladribine; type: in vivo, human
Experimental: The DNA and the mononuclear cells from the buffy coat were stored from the majority of patient samples. DNA was used for global DNA methylation studies and the mononuclear cells from the buffy coat were used to measure changes in H3 methylation by immunofluorescence before and after treatment.
3×10^4 CLL cells were mounted onto a slide by cytospin at 800 rpm for 3 minutes. They were then fixed in 95% ethanol/5% acetic acid for 10 minutes, followed by incubation in 0.25 M sodium butyrate for 24 hours at room temperature. The slides were stained by the Ventana automated immunostainer at 40° C. The slides were first stained with the primary antibody (1:50) for 32 minutes, followed by staining with the secondary antibody (sheep or rabbit IgG-FITC) (1:200) for 32 minutes. Slides were counterstained with DAPI (1:100) for 1 minute and hematoxylin (Ventana Medical Systems) for 4 minutes. Fluorescent detection was performed with the IView DAB detection kit (Ventana Medical Systems). Intensity of fluorescence was quantitated by a wide field fluorescent microscope and quantified by the Openlab modular imaging software. Signal to noise was optimized by the software.
A histone methylation assay that uses immunofluorescence to assess for histone methylation patterns after treatment with low-doses of cladribine was developed. […] These states are associated with transcription silencing. (See Jaskelioff et al., Nat. Cell. Biol. (2003) 5:395-99). In FIG. 4, an average of 100 cells was quantitated in the fluorescence intensity at each time point. The asterisk corresponds to days of treatment with cladribine. The error bars at each time point refer to the range of antibody staining in all cells. […] Multiparametric flow cytometry may be utilized to analyze further which subset of CLL cells respond to low doses of drugs.

HT-29 cells = assay: DNA microarray analysis of gene re-expression after Cladribine; type: cell-based; details: HT-29 colon cancer cell line
Experimental: Lymphocytes are inclubated with 0-3 μM Cladribine.
Total RNA is isolated with RNeasy mini kits (Qiagen) from samples treated with Cladribine or vehicle. Approximately 1 μg may be amplified using Message Amp kits (Ambion). In replicate experiments, DNA from the vehicle or treated samples may be variably labeled with Cy-3 and Cy-5 dye and two microarray experiments may be performed for each dye-orientation. The utilized microarray slides consist of 9600 genes from the Research Genetics 40k sequence-verified human clone set. Each sample is deposited in duplicate, with a Lucidea (Amersham) robotic spotter. After hybridization, the microarray slides are scanned with an Axon scanner, and data quantified using Imagene and GeneSight software. The local background is subtracted. Data points with no signal, high background, or spot asymmetry are eliminated. Genes with low expression and low signal intensity are adjusted to a minimal raw value of 5 to avoid unwarranted mathematical distortions due division by decimals <<1. After calculating the ratio of the Cy5/Cy3 fluorescence signal intensity for each gene, data is normalized relative to the mean intensity from all genes. […] Data is analyzed with Spotfire software for statistical and hierarchical cluster analysis using an unweighted pair-group method with arithmetic mean with a Euclidean distance metric.

[5] = tested on: miRNA expression in patients with CLL; assay: miRNA expression profile (Taqman real-time PCR) before and after DNA methylation inhibitor; type: in vivo, human; details: for Changes in bcl-2, p53, mir-15, mir-16: after treatment; for miR-34a and miR-195 expression: patients with decreased lymphocytosis following drug treatment; for Expression of mir-17-3p, mir-21, mir-29a/b/c, mir-30e, mir-104, mir-126, mir-128a, mir-130a, mir-141, mir-142-3p, mir-148a, mir-151, mir-199a, mir-199a*, mir-301: real-time PCR, Early Access Human Panel; for microRNA expression after treatment: six patients on 5-azacytidine, one patient on 2-chloro-2-deoxyadenosine
Experimental: The DNA MI was measured in each patient before and after treatment with low dose cladribine.
(§1) Patients with CLL not in immediate need for cytoreductive therapy are enrolled on a dose-escalation study of low-dose 5-azacytidine (Vidaza, provided by the Pharmion Corporation.) Patients must have a KPS greater than 70%, white blood cell count greater than 20,000/μL hemoglobin >8 g/dL, platelet count >50,000/μL, normal liver, and renal functions. The study was carried out in 2 stages using a modification of the design proposed by Storer. {Storer, 1989 #16} In the first stage, patients were enrolled as single patient cohorts until either at least a 20% DNA MI inhibition or a greater than grade II toxicity. This allowed us to get closer to the target biologically effective dose before enrolling three patient cohorts. The global DNA MI and the miRNA expression profile of 6 patients before and after 5-azacytidine in the patients in the first stage of the study protocol was determined. Patients received 10-70 mg/m^2/day on days 1-3 and days 8-10.
Total RNA is extracted with Trizol, as previously described. {O'Donnell, 2005 #182} MiRNA expression was determined using the Applied Biosystems Taqman MicroRNA Assays Human Panel Early Access Kit. 10 ηg of RNA is used for each sample. cDNA is made using a looped RT primer provided by the kit. A 1 to 5 dilution of the cDNA is used for each sample and used for quantitative PCR on the ABI 7900HT Fast Real-Time PCR System. MiRNA-specific forward and reverse primers were provided in plates A and B. MiR-16 and let-7a served as positive controls while let-2 served as a negative control for human samples. Each miRNA were performed in quadriplicates. The miRNA expression was determined for CD5^+B-lymphocytes obtained from pediatric tonsils and from B-lymphocytes of 5 healthy controls.
Two different DNA methylation inhibitors were studied with respect to re-expression of microRNA: a DNA methyltransferase enzyme inhibitor, 5-azacytidine, and a methyl substrate inhibitor, 2-chloro-2-deoxyadenosine. […] Mir-17-3p and mir-21 have anti-apoptotic properties.

patients with CLL = assay: Dose-escalation study of low-dose 5-azacytidine: toxicity; type: in vivo, human
Experimental: as §1

global DNA methylation [6] = assay: Global DNA MI (HPLC) before and after low-dose 5-azacytidine; type: in vivo, human
[7] = low-dose cladribine s.c., 5 CLL patients
[8] = low-dose cladribine, 5 patients
[9] = CLL cells after low dose cladribine

Nc1ncn([C@H]2C[C@H](O)[C@@H](CO)O2)c(=O)n1 [Decitabine, 5-aza-2-deoxycytidine]
Decrease in global DNA methylation level achievable (global DNA methylation [1]): ≥ 20%

Nc1nc(Cl)nc2c1ncn2[C@H]1C[C@H](O)[C@@H](CO)O1 [cladribine, 2-chlorodeoxyadenosine]
Hemoglobin change over the course of the study ([2]; Patient 1): did not exhibit a decrease in hemoglobin | Toxicities overall ([2]; low-dose cladribine 0.05-0.09 mg per kg per day): without toxicities | Clinical response (NCI-sponsored working group) ([2]; low-dose cladribine 0.05-0.09 mg per kg per day, 3 days every 28 days): induce a clinical response in some patients; also recorded: partial response; also recorded: Three out of the five | CR (number of patients) [2, 7]: 0 | PD (number of patients) [2, 7]: 1 | PR duration [2, 7]: 5 months | Hematologic toxicities Grade III/IV (number of patients) [2, 8]: Grade III/IV (0) | Non-hematologic toxicities Grade I/II (number of patients) [2, 8]: Grade I/II (2)* | Non-hematologic toxicities Grade III/IV (number of patients) [2, 8]: Grade III/IV (0) | Non-hematologic toxicities observed (adverse events) ([2]; low-dose cladribine, events in patient 4): Two grade II non-hematologic toxicities; also recorded: grade II lymphadenitis; also recorded: second grade II infection, a community-acquired pneumonia | Decrease in lymphocyte count by 50% (time) ([2]; mean of the 5 patients on trial, range 8-67 days): 48 days (8-67 days)** | Hemoglobin ([2]; mean of the 5 patients on trial, range 12.1-16 g/dL): 14.6 g/dL (12.1-16 g/dL)** | Platelet count ([2]; mean of the 5 patients on trial, range 133-438k/μL): 224k/μL (133-438k/μL)** | Reduction in circulating leukemia cells ([2]; patient 1, dose escalation): did not demonstrate a reduction in circulating leukemia cells until the third dose escalation of 0.07 mg per kg per day | Outcome of patient 3 (previously treated) ([2]; patient 3, higher baseline global DNA methylation): progressive disease; also recorded: progression with a gradually increasing white blood count | White blood cell count change ([2]; patient 5, first dose 0.05 mg per kg per day): dramatic reduction in white blood cell count | Reduction in white blood cell count ([2]; patients 1, 2, 4 and 5 after low dose cladribine): ≥ 50% | Global decrease of DNA methylation after treatment (global DNA methylation [3]; 6 out of 7 patients, pooled with the six 5-azacytidine patients): 8% | Effect on global DNA methylation (global DNA methylation [3]; low-dose cladribine): modest response; also recorded: not an effective DNA methylation inhibitor; also recorded: minimal inhibition in global DNA methylation | H3 dimethylated lysine 9 immunofluorescence [4, 9]: Little change | H3 monomethylated lysine 4 immunofluorescence [4, 9]: decreased to levels akin to signal intensity obtained from total histone 3; also recorded: decrease transiently | H3 monomethylated lysine 9 immunofluorescence [4, 9]: increase and rise | H3 phospho-serine 10 immunofluorescence [4, 9]: decrease and rise | H3 trimethylated lysine 9 immunofluorescence [4, 9]: increase in trimethylated lysine 9 approximately 1 week later and increase and rise | Total histone 3 immunofluorescence ([4]; patient 4, 0.05 mg per kg per day cladribine): minimal changes | Re-expression of silenced genes (DNA microarray) (HT-29 cells): re-expression of silenced genes in HT-29 cells | Changes in bcl-2, p53, mir-15, mir-16 [5]: No changes | miR-34a and miR-195 expression [5]: upregulated | Expression of mir-17-3p, mir-21, mir-29a/b/c, mir-30e, mir-104, mir-126, mir-128a, mir-130a, mir-141, mir-142-3p, mir-148a, mir-151, mir-199a, mir-199a*, mir-301 [5]: consistent microRNA upregulation | microRNA expression after treatment [5]: Increased microRNA expression

Nc1ncn([C@@H]2O[C@H](CO)[C@@H](O)[C@H]2O)c(=O)n1 [5-azacytidine]
Toxicity (patients with CLL; 5th patient, 60 mg/m^2/day): grade II thrombocytopenia and anemia | Toxicity (patients with CLL; the other patients, 10-70 mg/m^2/day): No other toxicities were observed | Global decrease of DNA methylation after treatment (global DNA methylation [6]; 6 out of 7 patients, pooled with the 2-chloro-2-deoxyadenosine patient): 8% | Decrease in global DNA MI (global DNA methylation [6]; four out of the 6 patients, low-dose 5-azacytidine): ~10% | Change in global DNA MI (global DNA methylation [6]; patients 2 and 4, low-dose 5-azacytidine): No change | Changes in bcl-2, p53, mir-15, mir-16 [5]: No changes | miR-34a and miR-195 expression [5]: upregulated | Expression of mir-17-3p, mir-21, mir-29a/b/c, mir-30e, mir-104, mir-126, mir-128a, mir-130a, mir-141, mir-142-3p, mir-148a, mir-151, mir-199a, mir-199a*, mir-301 [5]: consistent microRNA upregulation | microRNA expression after treatment [5]: Increased microRNA expression
